Values of other authors in patent US20130064803A1, “BIO-REPLENISHMENT (BioRep) FOR COGNITIVE HEALTH” (Naidu LP, priority 2011, published 2013).

Legend:
[1] = in vivo

| share of an oral dose ending up in the bloodstream | SMILES | first-pass, share metabolized in the liver [1] |
| --- | --- | --- |
| about 70% | N[C@@H](Cc1c[nH]c2ccc(O)cc12)C(=O)O [5-HTP, 5-hydroxy-tryptophan] |  |
|  | C[S+](CC[C@H](N)C(=O)O)C[C@H]1O[C@@H](n2cnc3c(N)ncnc32)[C@H](O)[C@@H]1O (some centres unmarked) [SAMe, S-adenosylmethionine] | approximately 50% |
